Test systems include SW-620 colon; NCI-H23 lung; HT29 colon; OVCAR-4 ovarian; HCC-2998 colon; COLO 205 colon; CCRF-CEM leukemia; NCI-H460 lung; U251 CNS; UACC-257 melanoma.
Common to all, as to experiment: NCI tumour cell line growth inhibition, 48 h

Structures are written as SMILES. Where “and” joins values, the source holds several entries; their conditions need not be identical. Equal values may be shown once.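 Following 48 hours of exposure in 96-well plates, responses at five concentrations were used to interpolate endpoints linearly. GI50 is the concentration that inhibits growth by half. At the TGI there is no net growth.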

In PubChem BioAssay (NCI) one finds GI50 and TGI data, which are given here for ten compounds.

With `CCCCCCCCCCCCn1c(C)nc2ccccc21`, the GI50 in the experiment on SW-620 colon was 15.4 µM; with NCI-H23 lung, 0.49 µM; in the experiment on HT29 colon it was 11.6 µM; with OVCAR-4 ovarian it was 12.7 µM; in the experiment with HCC-2998 colon it was 2.6 µM; in the experiment with COLO 205 colon, 13.2 µM. In addition, the results for the GI50 in the experiment with CCRF-CEM leukemia, in the experiment with NCI-H460 lung and in the experiment on U251 CNS were 2.79 µM, 10.5 µM and 11 µM, respectively. Besides, the TGI was found to be 30.7 µM with SW-620 colon; 11.5 µM in the experiment with NCI-H23 lung; 23.7 µM in the experiment with HT29 colon; 25.6 µM in the experiment with OVCAR-4 ovarian; 18 µM in the experiment on HCC-2998 colon; 27.4 µM with COLO 205 colon. In addition, the results for the TGI with CCRF-CEM leukemia, with NCI-H460 lung and in the experiment with U251 CNS were 21.2 µM, 24.3 µM and 24.9 µM, respectively.

Turning to `COC(=O)c1c[nH]c(=O)[nH]c1=O`, the TGI in the experiment with SW-620 colon, in the experiment with NCI-H23 lung, with HCC-2998 colon, in the experiment with COLO 205 colon, with UACC-257 melanoma and in the experiment on CCRF-CEM leukemia was over 100 µM each time. Besides, in the experiment with NCI-H460 lung, the TGI was over 100 µM.

Regarding `COc1ccc(-c2oc(=O)ccc2C#Cc2cc(OC)c(OC)c(OC)c2)cc1O`, the GI50 was 31.1 µM in the experiment with SW-620 colon; 22.3 µM in the experiment with NCI-H23 lung; 37.9 µM in the experiment on HT29 colon; 67 µM in the experiment with OVCAR-4 ovarian; 89.5 µM with COLO 205 colon; 36.4 µM in the experiment with UACC-257 melanoma. Besides, the GI50 was 2.79 µM in the experiment on CCRF-CEM leukemia, 15.7 µM in the experiment on NCI-H460 lung and 13.5 µM in the experiment on U251 CNS. Further, the TGI was over 100 µM in the experiment with SW-620 colon; 81.2 µM in the experiment with NCI-H23 lung; over 100 µM with HT29 colon; over 100 µM in the experiment on OVCAR-4 ovarian; over 100 µM in the experiment on COLO 205 colon; over 100 µM in the experiment on UACC-257 melanoma. In addition, the figures for the TGI in the experiment on CCRF-CEM leukemia, in the experiment on NCI-H460 lung and in the experiment with U251 CNS were over 100 µM, 62.9 µM and 50.6 µM, respectively.

`O=C1C2c3[nH]c4ccccc4c3[C@@H]3CCCCCCCCCCC3C2C(=O)N1c1ccccc1` (some centres undefined): the TGI in the experiment on SW-620 colon is 35.5 µM; in the experiment on NCI-H23 lung, 37.5 µM; with HT29 colon, over 100 µM; in the experiment with OVCAR-4 ovarian it was 57.5 µM; in the experiment on HCC-2998 colon it was over 100 µM; with COLO 205 colon, 58.5 µM. Also, the TGI in the experiment with NCI-H460 lung was found to be 34.8 µM; in the experiment with U251 CNS it was 37.8 µM.

As for `C(=N\Nc1nnc2c(n1)[nH]c1ccccc12)/c1cccnc1`, the TGI in the experiment on SW-620 colon, with NCI-H23 lung, in the experiment on HT29 colon, with OVCAR-4 ovarian, in the experiment with HCC-2998 colon and in the experiment with COLO 205 colon was over 100 µM in each case. In addition, the TGI in the experiment with UACC-257 melanoma, with NCI-H460 lung and in the experiment with U251 CNS was over 100 µM each time.

Turning to `CN(C)c1ccc(/C=C2\C[C@H]3[C@@H]4CC=C5C[C@@H](N6CCCC6)CC[C@]5(C)[C@H]4CC[C@]3(C)[C@H]2O)cc1`, the TGI was 3.69 µM with SW-620 colon; 9.93 µM and 58 µM with NCI-H23 lung; 3.54 µM and 15.1 µM in the experiment on HT29 colon; 2 µM and 5.96 µM in the experiment with OVCAR-4 ovarian; 1.86 µM in the experiment on HCC-2998 colon; 4.12 µM in the experiment on COLO 205 colon. In addition, the TGI is 1.89 µM and 4.02 µM in the experiment on UACC-257 melanoma; 5.08 µM and 5.52 µM in the experiment on NCI-H460 lung; 1.92 µM and 3.31 µM with U251 CNS. The GI50 with NCI-H23 lung was 16.8 µM; with HT29 colon, 3.17 µM; with OVCAR-4 ovarian it was 2.16 µM; in the experiment with UACC-257 melanoma it was 2.09 µM; with NCI-H460 lung it was 2.37 µM; in the experiment with U251 CNS it was 1.78 µM.

Turning to `Cn1c2ccccc2c(=Nc2ccccc2)c2c3ccccc3[nH]c21`, the GI50 in the experiment with SW-620 colon is 1.09 µM; in the experiment with NCI-H23 lung, 2.73 µM; in the experiment on HT29 colon it was 2.36 µM; in the experiment on OVCAR-4 ovarian it was 5.41 µM; with HCC-2998 colon, 3.23 µM; in the experiment with COLO 205 colon it was 4.53 µM. Also, the GI50 with UACC-257 melanoma was 3.02 µM; with NCI-H460 lung, 0.41 µM; with U251 CNS, 1.15 µM. For the same compound, the TGI in the experiment on SW-620 colon was 2.9 µM; with NCI-H23 lung, 20.4 µM; in the experiment with HT29 colon, over 100 µM; in the experiment with OVCAR-4 ovarian, 22 µM; in the experiment on HCC-2998 colon, 46.4 µM; with COLO 205 colon it was 18.8 µM. Moreover, the TGI amounted to 16 µM in the experiment on UACC-257 melanoma, 1.49 µM with NCI-H460 lung and 2.45 µM with U251 CNS.

Regarding `S=c1nc[nH]c2c1ncn2Cc1ccco1`, the TGI in the experiment with SW-620 colon, in the experiment with NCI-H23 lung, in the experiment on HT29 colon, in the experiment on OVCAR-4 ovarian, in the experiment on HCC-2998 colon and in the experiment on COLO 205 colon was over 100 µM in each case. For the same compound, the TGI with UACC-257 melanoma, with NCI-H460 lung and with U251 CNS was over 100 µM in each case.

`Oc1ccc2oc3ncc(Cl)c(-c4ccccc4)c3c2c1`: the GI50 with SW-620 colon, with NCI-H23 lung, in the experiment on HT29 colon, in the experiment with OVCAR-4 ovarian, with COLO 205 colon and in the experiment on UACC-257 melanoma was over 100 µM in each case. The values for the GI50 in the experiment with CCRF-CEM leukemia, in the experiment on NCI-H460 lung and in the experiment on U251 CNS were 21.2 µM, over 100 µM and over 100 µM, respectively. Further, the TGI in the experiment with SW-620 colon, with NCI-H23 lung, in the experiment on HT29 colon, with OVCAR-4 ovarian, with COLO 205 colon and in the experiment with UACC-257 melanoma was over 100 µM each time. For the same compound, the TGI in the experiment with CCRF-CEM leukemia was 63.2 µM; in the experiment with NCI-H460 lung, over 100 µM; in the experiment with U251 CNS, over 100 µM.

As to `Nc1nc2c(ncn2C2OC(CO)C(O)C2N)c(=O)[nH]1` (centres undefined), the TGI in the experiment with SW-620 colon, in the experiment with NCI-H23 lung, in the experiment on HT29 colon, in the experiment with HCC-2998 colon, in the experiment on COLO 205 colon and with UACC-257 melanoma was over 100 µM each time. The TGI in the experiment on CCRF-CEM leukemia, in the experiment with NCI-H460 lung and in the experiment with U251 CNS was over 100 µM throughout.
